# Assays:
# Caspase-2 = target: T1, Caspase-2 (Homo sapiens, UniProt P42575); assay: Inhibition of human caspase 2
# T1 sequence (P42575 whole entry): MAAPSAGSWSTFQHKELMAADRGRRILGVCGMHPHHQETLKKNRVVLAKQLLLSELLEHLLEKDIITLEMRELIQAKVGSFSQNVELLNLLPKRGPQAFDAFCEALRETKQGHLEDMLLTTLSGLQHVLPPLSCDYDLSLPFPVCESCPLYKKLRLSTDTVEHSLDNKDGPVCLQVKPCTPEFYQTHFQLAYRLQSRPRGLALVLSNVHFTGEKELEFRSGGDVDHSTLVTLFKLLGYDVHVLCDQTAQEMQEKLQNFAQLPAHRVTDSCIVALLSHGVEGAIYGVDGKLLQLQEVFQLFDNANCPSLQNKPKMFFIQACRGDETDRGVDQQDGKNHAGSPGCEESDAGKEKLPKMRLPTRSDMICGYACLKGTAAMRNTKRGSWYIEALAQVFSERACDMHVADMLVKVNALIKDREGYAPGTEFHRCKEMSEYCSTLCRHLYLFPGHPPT
# Caspase-3 = target: T2, Caspase-3 (Homo sapiens, UniProt P42574); assay: Inhibition of human caspase 3
# T2 sequence (P42574 whole entry): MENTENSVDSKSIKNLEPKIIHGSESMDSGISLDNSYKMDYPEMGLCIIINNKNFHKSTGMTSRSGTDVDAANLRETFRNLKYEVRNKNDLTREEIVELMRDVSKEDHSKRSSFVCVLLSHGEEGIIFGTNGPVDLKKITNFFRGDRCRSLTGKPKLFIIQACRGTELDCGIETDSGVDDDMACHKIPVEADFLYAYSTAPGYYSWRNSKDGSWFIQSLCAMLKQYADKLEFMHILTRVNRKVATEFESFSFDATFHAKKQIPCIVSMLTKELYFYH
# Caspase-6 = target: T3, Caspase-6 (Homo sapiens, UniProt P55212); assay: Inhibition of human caspase 6
# T3 sequence (P55212 whole entry): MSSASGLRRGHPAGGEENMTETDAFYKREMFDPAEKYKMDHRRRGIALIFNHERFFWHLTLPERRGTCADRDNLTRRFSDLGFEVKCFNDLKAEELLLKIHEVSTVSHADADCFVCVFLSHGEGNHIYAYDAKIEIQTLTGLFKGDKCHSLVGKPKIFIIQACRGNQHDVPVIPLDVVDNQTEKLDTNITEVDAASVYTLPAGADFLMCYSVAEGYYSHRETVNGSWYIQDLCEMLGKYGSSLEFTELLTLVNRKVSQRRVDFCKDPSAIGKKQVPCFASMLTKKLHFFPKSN
# Caspase-8 = Caspase-8 (Homo sapiens, UniProt Q14790); assay: Inhibition of human caspase 8
# Caspase-7 = target: T4, Caspase-7 (Homo sapiens, UniProt P55210); assay: Inhibition of human caspase 7
# T4 sequence (P55210 whole entry): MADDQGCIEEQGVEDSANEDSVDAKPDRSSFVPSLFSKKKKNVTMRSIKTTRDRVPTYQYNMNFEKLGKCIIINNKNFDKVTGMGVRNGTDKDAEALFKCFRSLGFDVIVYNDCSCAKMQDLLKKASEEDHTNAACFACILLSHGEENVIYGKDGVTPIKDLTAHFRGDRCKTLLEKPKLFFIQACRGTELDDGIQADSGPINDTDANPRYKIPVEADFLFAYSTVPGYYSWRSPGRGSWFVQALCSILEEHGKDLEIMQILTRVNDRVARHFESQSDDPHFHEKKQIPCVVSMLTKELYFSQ
# Caspase-1 = target: T5, Caspase-1 (Homo sapiens, UniProt P29466); assay: Inhibition of human caspase 1
# T5 sequence (P29466 whole entry): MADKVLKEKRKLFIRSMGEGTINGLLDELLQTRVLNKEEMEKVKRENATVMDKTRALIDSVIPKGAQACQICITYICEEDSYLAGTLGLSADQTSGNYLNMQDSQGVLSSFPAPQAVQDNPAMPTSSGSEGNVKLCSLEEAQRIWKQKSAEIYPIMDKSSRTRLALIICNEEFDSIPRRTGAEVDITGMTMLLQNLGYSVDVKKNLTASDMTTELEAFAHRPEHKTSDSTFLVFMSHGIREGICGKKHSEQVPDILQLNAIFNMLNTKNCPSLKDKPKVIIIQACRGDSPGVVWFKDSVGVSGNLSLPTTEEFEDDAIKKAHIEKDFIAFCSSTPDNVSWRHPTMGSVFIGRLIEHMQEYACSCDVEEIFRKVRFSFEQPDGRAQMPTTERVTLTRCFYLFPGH
# Chain of Caspase-8 (Q14790 217-374 limits assumed): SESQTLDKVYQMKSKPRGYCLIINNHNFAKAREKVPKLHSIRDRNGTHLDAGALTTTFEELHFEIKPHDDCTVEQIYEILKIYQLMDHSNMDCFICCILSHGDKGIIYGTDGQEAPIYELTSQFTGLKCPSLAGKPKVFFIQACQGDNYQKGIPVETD
# Chain of Caspase-8 (Q14790 385-479 limits assumed): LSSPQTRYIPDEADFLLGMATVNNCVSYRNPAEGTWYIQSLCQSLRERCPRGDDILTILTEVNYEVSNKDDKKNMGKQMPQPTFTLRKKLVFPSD
compound,measurement,setting,value
Cc1cccc(C)c1C(=O)OCC(=O)[C@H](CC(=O)O)NC(=O)[C@H](CCCCNC(=O)CCCCCNC(=O)CCCCC1SC[C@@H]2NC(=O)N[C@H]12)NC(=O)[C@H](CCC(=O)O)NC(=O)OCc1ccccc1 (stereo partly specified),Ki,Caspase-2,29000 nM
same,Ki,Caspase-3,840 nM
same,Ki,Caspase-6,550000 nM
same,Ki,Caspase-8,540 nM
same,Ki,Caspase-7,1200 nM
same,Ki,Caspase-1,6.3 nM
